Data: US11395490B2, “Herbicidal composition” (SYNGENTA CROP PROTECTION, LLC, priority 2005, dated 2022)

Tests used:
Assay type in all cases: in vivo
Conditions in all cases: 21 days after treatment
Sorghum vulgare (SORVU) = experiment: Post-emergence test, Sorghum vulgare
Text: (§1) The herbicidal action to be expected, We, for a given combination of two herbicides can be calculated as follows (see COLBY, S. R. “Calculating synergistic and antagonistic response of herbicide combinations”. Weeds 15, pages 20-22; 1967): We=X+[Y·(100−X)/100] wherein: X=% herbicidal action in the case of treatment with active ingredient (A) using an application rate of p kg per hectare, in comparison with untreated control (=0%). Y=% herbicidal action in the case of treatment with active ingredient (B) using an application rate of q kg per hectare, in comparison with untreated control. We=expected herbicidal action (% herbicidal action in comparison with untreated control) after treatment with active ingredient (A) and active ingredient (B) at a rate of application of p+q kg of active ingredient per hectare. If the action actually observed is greater than the expected value We, there is a synergistic effect. Trial Description, Pre-Emergence Test: Monocotyledonous and dicotyledonous test plants are sown in standard soil in plastics pots. The plants tested were: Maize (ZEAMX), Ipomea purpurea (PHBPU), Euphorbia heterophylla (EPHHL), Panicum millenacearum (PANMI). Immediately after sowing, the test compounds in aqueous suspension are applied by spraying (200 litres of water/ha). (A) was formulated as a SC50, and (B1), (B2) and (B3) were formulated as WP25; 1% adjuvant crop oil concentrate (Agridex) (v/v) was added to all treatments. The compounds were applied alone and in combination as tank mixtures. The rates of application depend on the optimum concentrations determined under field conditions and greenhouse conditions. The test plants are then cultivated in a greenhouse under optimum conditions. Evaluation of the tests is made after 21 days (% action, 100%=plants have died, 0%=no phytotoxic action).
(§2) Trial Description Post-Emergence Test: The test plants are raised in plastics pots under greenhouse conditions as far as the 2- to 3-leaf stage. A standard soil is used as the cultivation substrate. The plants tested were: Maize (ZEAMX), Ipomea purpurea (PHBPU), Sorghum vulgare (SORVU), Euphorbia heterophylla (EPHHL), Panicum millenacearum (PANMI). At the 2- to 3-leaf stage, the herbicides are applied individually and as mixtures to the test plants. The test compounds are applied in the form of an aqueous suspension in 200 litres of water/ha. (A) was formulated as a SC50, and (B1), (B2) and (B3) were formulated as WP25; 1% adjuvant crop oil concentrate (Agridex) (v/v) was added to all treatments. The compounds were applied alone and in combination as tank mixtures. The rates of application depend on the optimum concentrations determined under field conditions and greenhouse conditions. Evaluation of the tests is made after 21 days (% action, 100%=plants have died, 0%=no phytotoxic action).

[1] = test system: Panicum millenacearum (PANMI); experiment: Post-emergence test, Panicum millenacearum
Text: as §1, §2

[2] = test system: Panicum millenacearum (PANMI); experiment: Pre-emergence test, Panicum millenacearum
Text: as §1

[3] = test system: Euphorbia heterophylla (EPHHL); experiment: Pre-emergence test, Euphorbia heterophylla
Text: as §1

Maize (ZEAMX) [4] = experiment: Pre-emergence test, Maize
Text: as §1

Ipomea purpurea (PHBPU) [5] = experiment: Post-emergence test, Ipomea purpurea
Text: as §1, §2

Maize (ZEAMX) [6] = experiment: Post-emergence test, Maize
Text: as §1, §2

Ipomea purpurea (PHBPU) [7] = experiment: Pre-emergence test, Ipomea purpurea
Text: as §1

[8] = test system: Euphorbia heterophylla (EPHHL); experiment: Post-emergence test, Euphorbia heterophylla
Text: as §1, §2

CS(=O)(=O)c1ccc(C(=O)C2C(=O)CCCC2=O)c(Cl)c1COCC(F)(F)F [(B2), tembotrione]
Observed plant damage SORVU (Sorghum vulgare (SORVU); rate 18.75 g/ha): 0% | Observed plant damage SORVU (Sorghum vulgare (SORVU); rate 37.5 g/ha): 0% | Observed plant damage SORVU (Sorghum vulgare (SORVU); rate 75 g/ha): 0% | Observed plant damage SORVU (Sorghum vulgare (SORVU); rate 150 g/ha): 0% | Observed plant damage SORVU (Sorghum vulgare (SORVU); rate 300 g/ha): 0% | Observed plant damage PANMI ([1]; rate 18.75 g/ha): 0% | Observed plant damage PANMI ([1]; rate 37.5 g/ha): 20% | Observed plant damage PANMI ([1]; rate 75 g/ha): 20% | Observed plant damage PANMI ([1]; rate 150 g/ha): 65% | Observed plant damage PANMI ([1]; rate 300 g/ha): 50% | Observed plant damage PANMI ([2]; rate 18.75 g/ha): 0% | Observed plant damage PANMI ([2]; rate 37.5 g/ha): 0% | Observed plant damage PANMI ([2]; rate 75 g/ha): 0% | Observed plant damage PANMI ([2]; rate 150 g/ha): 40% | Observed plant damage PANMI ([2]; rate 300 g/ha): 98% | Observed plant damage EPHHL ([3]; rate 18.75 g/ha): 0% | Observed plant damage EPHHL ([3]; rate 37.5 g/ha): 0% | Observed plant damage EPHHL ([3]; rate 75 g/ha): 0% | Observed plant damage EPHHL ([3]; rate 150 g/ha): 100% | Observed plant damage EPHHL ([3]; rate 300 g/ha): 100% | Observed plant damage ZEAMX (Maize (ZEAMX) [4]; rate 18.75 g/ha): 0% | Observed plant damage ZEAMX (Maize (ZEAMX) [4]; rate 37.5 g/ha): 0% | Observed plant damage ZEAMX (Maize (ZEAMX) [4]; rate 75 g/ha): 0% | Observed plant damage ZEAMX (Maize (ZEAMX) [4]; rate 150 g/ha): 0% | Observed plant damage ZEAMX (Maize (ZEAMX) [4]; rate 300 g/ha): 0% | Observed plant damage PHBPU (Ipomea purpurea (PHBPU) [5]; rate 18.75 g/ha): 0% | Observed plant damage PHBPU (Ipomea purpurea (PHBPU) [5]; rate 37.5 g/ha): 25% | Observed plant damage PHBPU (Ipomea purpurea (PHBPU) [5]; rate 75 g/ha): 55% | Observed plant damage PHBPU (Ipomea purpurea (PHBPU) [5]; rate 150 g/ha): 60% | Observed plant damage PHBPU (Ipomea purpurea (PHBPU) [5]; rate 300 g/ha): 60% | Observed plant damage ZEAMX (Maize (ZEAMX) [6]; rate 18.75 g/ha): 0% | Observed plant damage ZEAMX (Maize (ZEAMX) [6]; rate 37.5 g/ha): 0% | Observed plant damage ZEAMX (Maize (ZEAMX) [6]; rate 75 g/ha): 0% | Observed plant damage ZEAMX (Maize (ZEAMX) [6]; rate 150 g/ha): 0% | Observed plant damage ZEAMX (Maize (ZEAMX) [6]; rate 300 g/ha): 0% | Observed plant damage PHBPU (Ipomea purpurea (PHBPU) [7]; rate 18.75 g/ha): 0% | Observed plant damage PHBPU (Ipomea purpurea (PHBPU) [7]; rate 37.5 g/ha): 0% | Observed plant damage PHBPU (Ipomea purpurea (PHBPU) [7]; rate 75 g/ha): 0% | Observed plant damage PHBPU (Ipomea purpurea (PHBPU) [7]; rate 150 g/ha): 20% | Observed plant damage PHBPU (Ipomea purpurea (PHBPU) [7]; rate 300 g/ha): 75% | Observed plant damage EPHHL ([8]; rate 18.75 g/ha): 65% | Observed plant damage EPHHL ([8]; rate 37.5 g/ha): 75% | Observed plant damage EPHHL ([8]; rate 75 g/ha): 80% | Observed plant damage EPHHL ([8]; rate 150 g/ha): 98% | Observed plant damage EPHHL ([8]; rate 300 g/ha): 100%

Cc1c(C(=O)c2cnn(C)c2O)ccc(S(C)(=O)=O)c1C1=NOCC1 [(B3), topramezone]
Observed plant damage SORVU (Sorghum vulgare (SORVU); rate 5 g/ha): 0% | Observed plant damage SORVU (Sorghum vulgare (SORVU); rate 10 g/ha): 0% | Observed plant damage SORVU (Sorghum vulgare (SORVU); rate 20 g/ha): 0% | Observed plant damage SORVU (Sorghum vulgare (SORVU); rate 40 g/ha): 0% | Observed plant damage SORVU (Sorghum vulgare (SORVU); rate 80 g/ha): 0% | Observed plant damage PANMI ([1]; rate 5 g/ha): 0% | Observed plant damage PANMI ([1]; rate 10 g/ha): 20% | Observed plant damage PANMI ([1]; rate 20 g/ha): 80% | Observed plant damage PANMI ([1]; rate 40 g/ha): 90% | Observed plant damage PANMI ([1]; rate 80 g/ha): 90% | Observed plant damage PANMI ([2]; rate 5 g/ha): 0% | Observed plant damage PANMI ([2]; rate 10 g/ha): 0% | Observed plant damage PANMI ([2]; rate 20 g/ha): 0% | Observed plant damage PANMI ([2]; rate 40 g/ha): 0% | Observed plant damage PANMI ([2]; rate 80 g/ha): 98% | Observed plant damage EPHHL ([3]; rate 5 g/ha): 0% | Observed plant damage EPHHL ([3]; rate 10 g/ha): 0% | Observed plant damage EPHHL ([3]; rate 20 g/ha): 0% | Observed plant damage EPHHL ([3]; rate 40 g/ha): 0% | Observed plant damage EPHHL ([3]; rate 80 g/ha): 30% | Observed plant damage ZEAMX (Maize (ZEAMX) [4]; rate 5 g/ha): 0% | Observed plant damage ZEAMX (Maize (ZEAMX) [4]; rate 10 g/ha): 0% | Observed plant damage ZEAMX (Maize (ZEAMX) [4]; rate 20 g/ha): 0% | Observed plant damage ZEAMX (Maize (ZEAMX) [4]; rate 40 g/ha): 0% | Observed plant damage ZEAMX (Maize (ZEAMX) [4]; rate 80 g/ha): 0% | Observed plant damage PHBPU (Ipomea purpurea (PHBPU) [5]; rate 5 g/ha): 35% | Observed plant damage PHBPU (Ipomea purpurea (PHBPU) [5]; rate 10 g/ha): 55% | Observed plant damage PHBPU (Ipomea purpurea (PHBPU) [5]; rate 20 g/ha): 20% | Observed plant damage PHBPU (Ipomea purpurea (PHBPU) [5]; rate 40 g/ha): 25% | Observed plant damage PHBPU (Ipomea purpurea (PHBPU) [5]; rate 80 g/ha): 80% | Observed plant damage ZEAMX (Maize (ZEAMX) [6]; rate 5 g/ha): 0% | Observed plant damage ZEAMX (Maize (ZEAMX) [6]; rate 10 g/ha): 0% | Observed plant damage ZEAMX (Maize (ZEAMX) [6]; rate 20 g/ha): 0% | Observed plant damage ZEAMX (Maize (ZEAMX) [6]; rate 40 g/ha): 0% | Observed plant damage ZEAMX (Maize (ZEAMX) [6]; rate 80 g/ha): 20% | Observed plant damage PHBPU (Ipomea purpurea (PHBPU) [7]; rate 5 g/ha): 0% | Observed plant damage PHBPU (Ipomea purpurea (PHBPU) [7]; rate 10 g/ha): 0% | Observed plant damage PHBPU (Ipomea purpurea (PHBPU) [7]; rate 20 g/ha): 0% | Observed plant damage PHBPU (Ipomea purpurea (PHBPU) [7]; rate 40 g/ha): 0% | Observed plant damage PHBPU (Ipomea purpurea (PHBPU) [7]; rate 80 g/ha): 55% | Observed plant damage EPHHL ([8]; rate 5 g/ha): 0% | Observed plant damage EPHHL ([8]; rate 10 g/ha): 20% | Observed plant damage EPHHL ([8]; rate 20 g/ha): 50% | Observed plant damage EPHHL ([8]; rate 40 g/ha): 65% | Observed plant damage EPHHL ([8]; rate 80 g/ha): 90%
